tested on: CHIKV; type: cell-based, chikungunya virus

Substance | Score_si4 | Score_si1 | Score_si2 | Score_si3
s19090 (sense GGATCTGACTATTCGCACT; chemistry not given here) [reference compound] | 0.04 | – | – | –
Hs_TREX2_1 (CACAATGGCTTTGATTATGAT; chemistry not given here) [reference compound] | – | -2.42 | – | –
s18705 (sense GCTCGTTACCTACATAGTA; chemistry not given here) [reference compound] | – | – | -0.84 | –
Hs_TUSC1_2 (ACCGATCATTCTATTATCATT; chemistry not given here) [reference compound] | – | – | -1.18 | –
Hs_IQGAP1_4 (sense TGCCCACTTAAGCATCATTAA; chemistry not given here) | – | – | – | 0.98
Hs_YEATS4_1 (AAGGGTGTTACTATCGTTAAA; chemistry not given here) | – | 1.23 | – | –
s1698 (CGAACTACACCTTCAGCTA; chemistry not given here) [reference compound] | – | – | – | -0.99
Hs_SULF1_4 (sense AGCATGGATTTGATTATGCAA; chemistry not given here) [reference compound] | – | – | -1.41 | –
s18240 (GATTGATGCTGGAAGTAGA; chemistry not given here) | – | – | – | 1.21
s4918 (sense GGCACTTACTATGACAATT; chemistry not given here) | – | – | – | 1.02
s9326 (GGACTTAGTATAATGTGAA; chemistry not given here) | – | – | 1 | –
Hs_RARSL_4 (sense CCAGCTTTCCAGAGTGTTGAA; chemistry not given here) [reference compound] | – | – | – | -1.26
s50642 (sense CCTTCATGGTGGGACTGTA; chemistry not given here) | – | – | – | 0.69
Hs_EZH2_6 (CAGGATGGTACTTTCATTGAA; chemistry not given here) | – | 1.77 | – | –
s33488 (CCACCTAGCTTGTAACGAA; chemistry not given here) | 1.58 | – | – | –
s923 (AATTCAAGCTATGAAGATA; chemistry not given here) | – | – | 1.99 | –
s25039 (sense CAAATTTCCTGTTAATCGA; chemistry not given here) [reference compound] | – | – | – | -0.41
Hs_TADA3L_1 (sense CTGACCGAACTGGACACTAAA; chemistry not given here) [reference compound] | – | – | -1.72 | –
Hs_TGIF_1 (sense TACCCAGAGGACACTTGTAAA; chemistry not given here) | – | 1.41 | – | –
s31192 (GGAAGGACTTACTACTACA; chemistry not given here) | – | – | – | 1.79
s992 (GTGTTTTTCCGTAAGCATA; chemistry not given here) [reference compound] | – | – | – | -0.52

Substance | Score_si4 | Score_si1 | Score_si2 | Score_si3
s38777 (GGCTCAAACTGGGAGTCAA; chemistry not given here) | – | – | 1.07 | –
Hs_RXRA_3 (sense TCCGTACGATTGTCTCTGAAA; chemistry not given here) | 0.81 | – | – | –
s12381 (sense AGGCTCAGATCGACCAATA; chemistry not given here) | – | – | – | 0.71
s25184 (sense CCCATCAACTTCTCCGTGA; chemistry not given here) | 0.53 | – | – | –
Hs_EIF2B2_2 (CAACATCATTGAGGCGATTAA; chemistry not given here) | – | 2.1 | – | –
Hs_AP3S2_2 (CAGGGCTTAGGCGCCCATAAA; chemistry not given here) | – | 1.97 | – | –
s26802 (sense ACATCTCAGGGACCCATTT; chemistry not given here) | 1.65 | – | – | –
Hs_ODZ3_4 (CACGAGGAAACTACAATTCCA; chemistry not given here) | – | – | – | 1
s34429 (CTCCTGCCTTGAGCCCTTA; chemistry not given here) | 0.3 | – | – | –
Hs_RAB3D_5 (sense TCCGTGGTGCCTTCTAGCTTA; chemistry not given here) | – | – | – | 0.91
Hs_KRTHA2_2 (sense ATGGTTGTGAACATTGATAAT; chemistry not given here) | – | – | 1.02 | –
s25486 (sense GGTCTACAATCGGATGACA; chemistry not given here) | 1.05 | – | – | –
s12243 (sense GCTGGGACAAGACACTGTA; chemistry not given here) | – | – | – | 1.87
s17000 (GATGAAAGGTTACAATCCA; chemistry not given here) | – | – | – | 1.29
Hs_SDFR1_8 (sense CAGGTATATACAGCATATAAA; chemistry not given here) [reference compound] | – | -2.41 | – | –
s36691 (CAGATGTTATGGATATAAT; chemistry not given here) [reference compound] | – | -1.07 | – | –
Hs_PRPF40A_2 (sense CTGGAAAGCCTTACTATTATA; chemistry not given here) | – | 2.41 | – | –
Hs_RORC_3 (sense CCGGGCCTACAATGCTGACAA; chemistry not given here) | 0.9 | – | – | –
Hs_PDLIM5_6 (TCCGATGTGCGCCCATTGTAA; chemistry not given here) | – | – | – | 0.87
s12110 (sense CAATCTCTCTTATCCTTGA; chemistry not given here) | – | – | 1.28 | –
Hs_PTPN6_5 (sense CCGGAACAAATGCGTCCCATA; chemistry not given here) | 1.05 | – | – | –

Substance | Score_si4 | Score_si1 | Score_si2 | Score_si3
Hs_PRPF4B_2 (sense CACCCTTAAATCGTTATTAAT; chemistry not given here) | 0.63 | – | – | –
Hs_DOK6_5 (CTGAGCAACATGAAAGATTAA; chemistry not given here) [reference compound] | – | -2.96 | – | –
Hs_PPP1R15A_3 (CAGGATCAGCCGAGGATGAAA; chemistry not given here) | – | – | – | 1.25
Hs_AP2M1_3 (ACGTGTGACTTCGTCCAGTTA; chemistry not given here) | – | 2.57 | – | –
s195060 (sense CCAGATCTATGAATTGGAA; chemistry not given here) | – | – | 1.92 | –
s195100 (sense GGGTGAATGTAGACCCTGA; chemistry not given here) | – | – | – | 1.95
s10856 (sense AAGTTTACGTGAACAAATT; chemistry not given here) | – | – | – | -0.27
s19038 (sense GGAATATTCTTCAGCTACA; chemistry not given here) | – | – | – | 1.51
Hs_SDFR1_9 (sense CTGGTACATAAAGATGAGTAA; chemistry not given here) [reference compound] | – | – | – | -1.41
s21625 (sense GCAGCCTTGTTGCTCTTAA; chemistry not given here) | – | – | 1.37 | –
s10394 (GCTTTATGCTGCTAAGGCA; chemistry not given here) | 1.23 | – | – | –
s915 (CATCCAGTCTGTATACGAA; chemistry not given here) | – | 1.9 | – | –
Hs_LOC283377_7 (sense AAAGCTAGGCATACAGCCAAA; chemistry not given here) | – | – | – | 0.76
Hs_RAB3D_4 (sense AAGCAAGTTCTTGCCCAATCA; chemistry not given here) | – | – | 1.56 | –
Hs_FLT4_8 (sense CACCGTGTGGGCTGAGTTTAA; chemistry not given here) | – | – | 1.07 | –
s20833 (sense GAATATGACTCTGCAAAGA; chemistry not given here) | 0.65 | – | – | –
s27641 (sense GGGAAACAGTTGGAAGAGA; chemistry not given here) | – | – | – | 1.64
s16634 (GCATAGTTTCGGTCATCTA; chemistry not given here) | – | 2.03 | – | –
s194444 (sense GCTGCGTCTCCCTTCCAAA; chemistry not given here) [reference compound] | -0.58 | – | – | –
Hs_TGIF_6 (sense TCCAAGAACTATAAACTTAAA; chemistry not given here) | – | – | – | 1
s16047 (GAACCCATATTATTAGTGA; chemistry not given here) [reference compound] | – | – | -0.72 | –

Substance | Score_si4 | Score_si1 | Score_si2 | Score_si3
Hs_CLCN6_4 (sense AAGATGTGAATTCAAGTATCA; chemistry not given here) | – | 2.72 | – | –
Hs_MAZ_2 (CCGCGACGTCTACCACCTGAA; chemistry not given here) | – | 2.43 | – | –
s12471 (sense CTTCTGTACCCATCAGTAA; chemistry not given here) | – | – | – | 1.63
Hs_PEX19_4 (CTGGATCTTATGCAGCAGCTA; chemistry not given here) | – | – | 0.89 | –
s33581 (GTACTTATATGAACGTATT; chemistry not given here) | 1.43 | – | – | –
s35017 (AAGACAGGCTGATCAACTA; chemistry not given here) | – | – | – | 0.94
Hs_MDS032_1 (TCGAATCATGCCTAAACTCAA; chemistry not given here) | 1.39 | – | – | –
Hs_CCNF_3 (sense CACAGATGGCGTCAATGTGAA; chemistry not given here) | – | – | 1.09 | –
Hs_GPS1_3 (sense CAAGTGGGCGGTGTCCATTAA; chemistry not given here) | – | – | – | 1.75
s5032 (sense GGAGCGTATCTGTGAGAAA; chemistry not given here) | 1.56 | – | – | –
Hs_XRN1_2 (AAGGAAATAGATAAACTGTAA; chemistry not given here) | – | 1.94 | – | –
s20508 (sense CACTTGAGGAGTTACTGAA; chemistry not given here) [reference compound] | -0.76 | – | – | –
s5295 (sense CGAGGTCATTGTGCATGAA; chemistry not given here) | 0.77 | – | – | –
Hs_SAFB_2 (sense AAGGTGGTAATCCTGACGAAA; chemistry not given here) | – | – | 0.95 | –
Hs_FLJ11752_1 (sense CTGGATATTACTAGAGTTGTA; chemistry not given here) | – | 2.31 | – | –
s31800 (CCACACTCATCTATCGCAA; chemistry not given here) | – | – | 1.32 | –
Hs_NRD1_1 (CAGGGTGAAGCCACTTCATTA; chemistry not given here) | – | – | – | 1.32
Hs_POLR1A_1 (AAGGTTGATGACTACAGTCAA; chemistry not given here) | – | 1.93 | – | –
